Data: patent publication US4732970A, “Antitumor amino acid and peptide derivatives of 1,4-bis(aminoalkyl and hydroxy-aminoalkyl)amino)-5,8-dihydroxyanthraquinones” (priority 1986, dated 1988)

Test system: lymphocytic leukemia P388
Assay: Lymphocytic Leukemia P388 Test
Type: in vivo, BDF1 mice
Conditions: for Median Survival: BDF1 mice; for T/C × 100 (%): ratio of survival time treated/control
Procedure: The animals used were BDF1 mice, all of one sex, weighing a minimum of 18 g and all within a 3 g weight range. There were 5 or 6 mice per test group. The tumor transplant was by intraperitoneal injection of 0.5 ml of dilute ascitic fluid containing 10^6 cells of lymphocytic leukemia P388. The test compounds were administered intraperitoneally on days 1, 5 and 9 (relative to tumor inocu-lation) at various doses. The animals were weighed and survivors recorded on a regular basis for 60 days. The median survival time and the ratio of survival time for treated (T)/control (C) animals were calculated.

[1] = dose 0.75 mg/kg intraperitoneally on days 1, 5 and 9
[2] = dose 1.5 mg/kg intraperitoneally on days 1, 5 and 9
[3] = dose 3 mg/kg intraperitoneally on days 1, 5 and 9
[4] = Mus musculus, P388, ip, read-out: T/C × 100 (%)

Structure (SMILES)	Median Survival [1] [days]	T/C × 100 (%) [1] [%]	Median Survival [2] [days]	T/C × 100 (%) [2] [%]	Median Survival [3] [days]	T/C × 100 (%) [3] [%]	response vs control in vivo at 0.75 mg/kg [4] [%]	response vs control in vivo at 1.5 mg/kg [4] [%]	response vs control in vivo at 3 mg/kg [4] [%]
CC(C)(C)OC(=O)N[C@@H](CCC(=O)OCc1ccccc1)C(=O)NCCNc1ccc(NCCNC(=O)[C@H](CCC(=O)OCc2ccccc2)NC(=O)OC(C)(C)C)c2c1C(=O)c1c(O)ccc(O)c1C2=O (relative stereo) [Example 43, [S-(R*,R*)]-5,5'-(9,10-Dihydro-5,8-dihydroxy-9,10-dioxo-1,4-anthracenediyl)bis(imino-2,1-ethanediylimino)]bis[4-[[(1,1-dimethylethoxy)carbonvl]amino]-5-oxopentanoic acid]bis(phenylmethyl)ester]	16.5	150	17.0	155	18.0	164	–	–	–
N[C@@H](CCC(=O)OCc1ccccc1)C(=O)NCCNc1ccc(NCCNC(=O)[C@@H](N)CCC(=O)OCc2ccccc2)c2c1C(=O)c1c(O)ccc(O)c1C2=O.O=C(O)C(F)(F)F.O=C(O)C(F)(F)F (relative stereo) [Example 44, [S-(R*,R*)]-5,5'-[(9,10-Dihydro-5,8-dihydroxy-9,10-dioxo-1,4-anthracenediyl)bis(imino-2,1-ethanediylimino)]bis[4-amino-5-oxopentanoic acid]bis(phenylmethyl)ester, bis(trifluoroacetate)]	18.0	164	19.5	177	24.0	218	–	–	–
CC(C)(C)OC(=O)N[C@@H](CC(=O)OCc1ccccc1)C(=O)NCCNc1ccc(NCCNC(=O)[C@H](CC(=O)OCc2ccccc2)NC(=O)OC(C)(C)C)c2c1C(=O)c1c(O)ccc(O)c1C2=O (relative stereo) [Example 45, [S-(R*,R*)]-4,4'-[(9,10-Dihydro-5,8-dihydroxy-9,10-dioxo-1,4-anthracenediyl)bis(imino-2,1-ethanediylimino)]bis[3-[[(1,1-dimethylethoxy)carbonyl]amino]-4-oxobutanoic acid]bis(phenylmethyl)ester]	14.0	127	15.5	141	18.0	164	–	–	–
N[C@@H](CC(=O)OCc1ccccc1)C(=O)NCCNc1ccc(NCCNC(=O)[C@@H](N)CC(=O)OCc2ccccc2)c2c1C(=O)c1c(O)ccc(O)c1C2=O.O=C(O)C(F)(F)F.O=C(O)C(F)(F)F (relative stereo) [Example 46, [S-(R*,R*)]-4,4'-[(9,10-Dihydro-5,8-dihydroxy-9,10-dioxo-1,4-anthracenediyl)bis(imino-2,1-ethanediylimino)]bis[3-amino-4-oxobutanoic acid]bis(phenylmethyl)ester, bis(trifluoroacetate)]	21.0	191	25.5	232	26.0	236	–	–	–
CC(C)(C)OC(=O)CC[C@H](NC(=O)OCc1ccccc1)C(=O)NCCNc1ccc(NCCNC(=O)[C@H](CCC(=O)OC(C)(C)C)NC(=O)OCc2ccccc2)c2c1C(=O)c1c(O)ccc(O)c1C2=O (relative stereo) [Example 47, [S-(R*,R*)]-5,5'-[(9,10-Dihydro-5,8-dihydroxy-9,10-dioxo-1,4-anthracenediyl)bis(imino-2,1-ethanediylimino)]bis[5-oxo-4-[[(phenylmethoxy)carbonyl]amino]pentanoic acid], bis(1,1-dimethylethyl)ester]	15.0	136	17.0	155	16.5	150	–	–	–
O=C(O)C(F)(F)F.O=C(O)C(F)(F)F.O=C(O)CC[C@H](NC(=O)OCc1ccccc1)C(=O)NCCNc1ccc(NCCNC(=O)[C@H](CCC(=O)O)NC(=O)OCc2ccccc2)c2c1C(=O)c1c(O)ccc(O)c1C2=O (relative stereo) [Example 48, [S-(R*,R*)]-5,5'-[(9,10-Dihydro-5,8-dihydroxy-9,10-dioxo-1,4-anthracenediyl)bis(imino-2,1-ethanediylimino)]bis[5-oxo-4-[[(phenylmethoxy)carbonyl]amino]pentanoic acid, bis(trifluoroacetate)]	14.0	117	15.0	125	16.5	138	–	–	–
Br.Br.NCC(=O)N[C@@H](Cc1ccccc1)C(=O)NCCNc1ccc(NCCNC(=O)[C@H](Cc2ccccc2)NC(=O)CN)c2c1C(=O)c1c(O)ccc(O)c1C2=O (relative stereo) [Example 54, [S-(R*,R*)]-N,N'-[(9,10-Dihydro-5,8-dihydroxy-9,10-dioxo-1,4-anthracenediyl)bis(imino-2,1-ethanediyl)]bis[glycyl-L-phenylalaninamide]dihydrobromide]	18.5	185	19.0	195	19.0	190	–	–	–
C[C@H](N)C(=O)NCCNc1ccc(NCCNC(=O)[C@H](C)N)c2c1C(=O)c1c(O)ccc(O)c1C2=O.Cl.Cl (stereo in doubt) [Example 16, [S-(R*,R*)]-N,N'-[(9,10-Dihydro-5,8-dihydroxy-9,10-dioxo-1,4-anthracenediyl)bis(imino-2,1-ethanediyl)]bis-[2-aminopropanamide], dihydrochloride]	25.5	232	52.5	477	42.5	386	–	–	–
CC(C)C[C@H](N)C(=O)NCCNc1ccc(NCCNC(=O)[C@@H](N)CC(C)C)c2c1C(=O)c1c(O)ccc(O)c1C2=O.Cl.Cl (stereo in doubt) [Example 18, [S-(R*,R*)]-N,N'-[(9,10-Dihydro-5,8-dihydroxy-9,10-dioxo-1,4-anthracenediyl)bis(imino-2,1-ethanediyl)]bis-[-amino-4-methylpentanamide], dihydrochloride]	25.5	213	26.0	217	18.0	150	–	–	–
CC(C)C[C@@H](N)C(=O)NCCNc1ccc(NCCNC(=O)[C@H](N)CC(C)C)c2c1C(=O)c1c(O)ccc(O)c1C2=O.Cl.Cl (stereo in doubt) [Example 20, [(R*,R*)]-N,N'-[(9,10-Dihydro-5,8-dihydroxy-9,10-dioxo-1,4-anthracenediyl)bis(imino-2,1-ethanediyl)]bis-[2-amino-4-methylentanamide], dihydrochloride]	20.5	171	22.5	188	23.5	196	–	–	–
C[C@@H](N)C(=O)NCCNc1ccc(NCCNC(=O)[C@@H](C)N)c2c1C(=O)c1c(O)ccc(O)c1C2=O.Cl.Cl (stereo in doubt) [Example 25, [R-(R*,R*)]-N,N'-[(9,10-Dihydro-5,8-dihydroxy-9,10-dioxo-1,4-anthracenediyl)bis(imino-2,1-ethanediyl)]bis-[2-aminopropanamide], dihydrochloride]	19.0	173	20.0	182	24.0	218	–	–	–
Br.Br.CC(C)C[C@H](N)C(=O)NCCNc1ccc(NCCNC(=O)[C@@H](N)CC(C)C)c2c1C(=O)c1c(O)ccc(O)c1C2=O (stereo in doubt) [Example 31, [S-(R*,R*)]-N,N'-[(9,10-Dihydro-5,8-dihydroxy-9,10-dioxo-1,4-anthracenediyl)bis(imino-2,1-ethanediyl)]bis[2-amino-4-methylpentanamide], dihydrobromide]	17.5	175	18.0	180	21.0	210	–	–	–
C[C@H](NC(=O)OC(C)(C)C)C(=O)N[C@@H](C)C(=O)N(CCNc1ccc(NCCN(C(=O)[C@H](C)NC(=O)[C@H](C)NC(=O)OC(C)(C)C)[C@@H](C)C(=O)O)c2c1C(=O)c1c(O)ccc(O)c1C2=O)[C@@H](C)C(=O)O [Example 7., N,N'-[(9,10-Dihydro-5,8-dihydroxy-9,10-dioxo-1,4-anthracenediyl)bis(imino-2,1-ethanediyl)]bis[N-[(1,1-dimethylethoxy)carbonyl]-L-alanyl-L-alanyl-L-alanine]]	18.5	–	18.0	–	19.0	–	176	171	181
